Values of other authors, collected in patent US20170202789A1, “METHODS AND RELATED COMPOSITIONS FOR IMPROVED DRUG BIOAVAILABILITY AND DISEASE TREATMENT” (priority 2014, published 2017).

Columns and labels:
[1] = caffeine 160 mg drink prior to cycling time trial, p<0.01
[2] = co-administration with carbohydrate drink, depending on dose and frequency
[3] = 3 mg/kg one hour prior to running, p<0.05
[4] = 400 mg, untrained individuals
[5] = 6 mg/kg + maintenance doses, with 7% carbohydrate drink
[6] = doses of 6-9 mg/kg

[O]=[V]([O-])([O-])[O-] [vanadate]
concentration at which formation of EP is inhibited (Na/K ATPase): less than 1 micromolar

Cn1c(=O)c2c(ncn2C)n(C)c1=O [caffeine]
reduction of time to complete the trial [1]: ~5%
increase in performance [2]: 2-3%
improvement in performance compared to placebo [3]: 1.2%
effect on bench press, leg extension strength or cycle ergometry [4]: did not have any positive effects
difference in performance with versus without caffeine [5]: No differences were noted
cognitive function before exercise (energy drink with caffeine, low dose): improved long term memory
cognitive function after exercise (low and medium dose caffeine containing energy drinks): improved all cognitive tests
adverse effects [6]: jitters, increased heart rate, and a diminution in exercise performance
